Key:
[1] = target: T1, Cytochrome P450 2C8 (Homo sapiens, UniProt P10632); test: (§1) All assays are carried out on a robotic system in 96 well plates. The final incubation volume contains TRIS buffer (0.1 M), MgCl2 (5 mM), human liver microsomes (0.05 mg/mL), amodiaquine (1 μM) and the test compound at five different concentrations or no compound (high control) in duplicate (e.g. highest concentration 10-50 μM with subsequent serial 1:4 dilutions). Following a short preincubation period, reactions are started with the cofactor (NADPH, 1 mM) and stopped by cooling the incubation down to 8° C. and subsequently by addition of one volume of acetonitrile. An internal standard solution¿the stable isotope d5-desethylamodiaquine is added after quenching of incubations. Peak area analyte (=metabolite formed) and internal standard is determined by LC-MS/MS. The resulting peak area ratio analyte to internal standard in these incubations is compared to a control activity containing no test compound. Within each of the assay runs, the IC50 of a positive control inhibitor (Montelukast) is determined.
T1 sequence (P10632 whole entry): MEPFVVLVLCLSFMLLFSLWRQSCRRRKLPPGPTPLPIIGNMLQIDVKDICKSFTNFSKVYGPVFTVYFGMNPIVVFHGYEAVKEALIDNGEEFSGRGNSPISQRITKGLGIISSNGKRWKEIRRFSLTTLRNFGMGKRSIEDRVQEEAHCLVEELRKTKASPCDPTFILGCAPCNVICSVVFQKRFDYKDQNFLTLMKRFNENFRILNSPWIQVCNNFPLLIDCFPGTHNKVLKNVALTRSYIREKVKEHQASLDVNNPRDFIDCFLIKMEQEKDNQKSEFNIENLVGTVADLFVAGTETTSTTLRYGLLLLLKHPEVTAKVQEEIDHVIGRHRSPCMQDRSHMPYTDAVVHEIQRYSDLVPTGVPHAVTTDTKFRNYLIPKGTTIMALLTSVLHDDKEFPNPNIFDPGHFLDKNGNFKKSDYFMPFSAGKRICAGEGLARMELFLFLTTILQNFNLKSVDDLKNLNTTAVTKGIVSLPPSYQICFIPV

[2] = target: Cytochrome P450 2C9 (Homo sapiens, UniProt P11712); test: as §1, with “(0.1” for “(0.05”, “diclofenac (10” for “amodiaquine (1”, “(e.g.,” for “(e.g.”, “solution the” for “solution¿the”, “13C6-hydroxydiclofenac” for “d5-desethylamodiaquine”, “(sulfaphenazole)” for “(Montelukast)”
Cytochrome P450 2C9, sequence (P11712 whole entry): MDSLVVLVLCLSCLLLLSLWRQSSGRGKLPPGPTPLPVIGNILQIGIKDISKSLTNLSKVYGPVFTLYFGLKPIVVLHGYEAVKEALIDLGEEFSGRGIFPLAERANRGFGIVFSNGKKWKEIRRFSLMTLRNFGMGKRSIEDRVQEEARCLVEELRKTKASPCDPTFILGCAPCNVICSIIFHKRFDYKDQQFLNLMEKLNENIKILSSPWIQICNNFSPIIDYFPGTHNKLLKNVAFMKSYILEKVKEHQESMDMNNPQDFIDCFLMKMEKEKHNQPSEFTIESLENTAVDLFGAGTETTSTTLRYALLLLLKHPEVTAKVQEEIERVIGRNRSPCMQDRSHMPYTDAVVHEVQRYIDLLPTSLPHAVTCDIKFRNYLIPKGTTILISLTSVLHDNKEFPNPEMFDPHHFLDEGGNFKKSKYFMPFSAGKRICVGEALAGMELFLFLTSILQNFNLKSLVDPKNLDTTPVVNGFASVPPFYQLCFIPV

| IC50 [1] | IC50 [2] | SMILES |
| --- | --- | --- |
| 10 µM | 31 µM | Cc1cc(C(=O)NCC(C)(C)O)cc(C)c1-c1ccc(F)c2c1CC[C@H]2Nc1ccc([C@H]2C[C@@H]2C(=O)O)nc1 |
| 5 µM | 7 µM | Cc1cccc(C)c1-c1ccc(F)c2c1CC[C@H]2Nc1ccc([C@H]2C[C@@H]2C(=O)O)nc1 |
| 9 µM | 10 µM | Cc1c(C#N)cccc1-c1ccc(F)c2c1CC[C@H]2Nc1ccc([C@H]2C[C@@H]2C(=O)O)nc1 |
